Entries after “also recorded” stand apart in the source; their conditions may differ. Where a name gives a salt, the structure may show the parent alone. Read-outs that look alike come from different tables or passages of the source. Values belong to the compound of their own block, whether it stands above or below them.
Columns and labels:
MDA-MB-231 = experiment: crystal violet cell viability assay; assay type: cell-based; conditions: for EC50: Homo sapiens; for cellular toxicity (in words): MDA-MB-231 cells
Procedure: The loss of cell adhesion for anchorage-dependent cell lines, such as MDCK, represents a surrogate marker of imminent cellular demise which can be measured by the crystal violet cell adhesion (CVCA) assay.^42 MDCK cells were grown in DMEM supplemented with 4% donor calf serum and 1% antibiotic (Gibco Life Technologies, Auckland NZ) and plated at 1×10^6 cells/mL in 24 well plates. CO donor compounds, CO expired compounds (left in solution for over 48 hours) or non CO releasing, debromo derivatives were dissolved in either ultrapure water or for non-water soluble compounds, in DMSO and diluted to 20-100 μM (to a final concentration of 1% DMSO where appropriate). Cells were exposed to CO donor compounds or the respective vehicle control solution for 1 hour at 37° C. prior to washing and incubating for a further 23 hours in fresh media. Cells were fixed in 96% ethanol and stained in 0.05% crystal violet solution in 20% ethanol, prior to washing and solubilising (24 hours) in 2 mL 0.1% acetic acid in 50% ethanol. Sample solutes (100 μL) from each well were transferred into a 96 well plate and absorbance measured at 585 nm. Cell survival was reported as a percentage of the value obtained for cells exposed to vehicle only and used to plot a concentration-response curve for each compound from which an EC50 value was obtained.
Toxicity was reported as EC50 values calculated from percentage cell survival using Origin Pro8 software (OriginLab, MA, USA).

[1] = test system: isolated rat aortic rings; experiment: isolated rat aortic ring vasorelaxation; design: species or system Lewis rats; conditions: rings pre-contracted with phenylephrine, 37° C.
Procedure: Transverse ring sections of aorta were isolated from male Lewis rats ([…], n=5-6 per group) under halothane anaesthesia and suspended under 2 g tension in an organ bath containing 10 mL of oxygenated (95% O2/5% CO2) Krebs Henseleit (KH) buffer containing 118 mM NaCl, 4.7 mM KCl, 1.2 mM KH2PO4, 1.2 mM MgSO4.7H2O, 22 mM NaHCO3, 11 mM glucose, 0.03 mM K^+ EDTA, and 2.5 mM CaCl2 as previously described.^43 Indomethacin (10 μM) was present in the buffer to exclude endogenous prostaglandins as potential modulators of vascular tone. Relaxation responses to oCOm-19 or oCOm-21 ([…]) were assessed using individual dosing in tissues pre-contracted with phenylephrine (0.1 μM). All results were subsequently expressed as a percentage of the maximal phenylephrine-induced contraction. Following repeat wash steps with Krebs Henseleit buffer, smooth muscle function and viability was confirmed by repeating the contractile response to phenylephrine. Aortic responses to individual EC50 concentrations of either CO donor in phenylephrine vasoconstricted rings were repeated separately, in the presence of the CO-chelator, myoglobin (5 μM) and the selective, irreversible inhibitor of sGC 1H-(1,2,4)oxadiazolo[4,3-a]quinoxalin-1-one, (ODQ, 10 μM), as previously described.^44

MDCK cells [2] = experiment: crystal violet cell adhesion (CVCA) cell toxicity assay; conditions: Canis lupus familiaris, MDCK
[3] = carboxyhaemoglobin in rats exposed to CO gas (earlier unpublished studies); assay type: in vivo; conditions: 20 ppm CO gas
horse heart myoglobin = experiment: carboxymyoglobin spectrophotometric assay (CO binding to myoglobin); assay type: biochemical; conditions: 25 to 400 μM; 5 to 90 minutes
Procedure: CO released from oCOm-19 and oCOm-21 was measured using an established carboxymyoglobin spectrophotometric assay,^39 adapted to a 96 well plate format to enable the simultaneous correction at all absorbance wavelengths arising from any potential interference from the donor compounds.^40 Freshly prepared horse heart myoglobin (66 μM) in a PBS solution (pH 7.4) was reduced with 10% w/v sodium dithionite and added to a 96 well plate. […] Absorption spectra (λ 500-600 nm) were run at ten minute intervals using a Spectramax 96-well spectrophotometer (Molecular Devices, Crawley, UK) at 37° C. CO gas saturated PBS (714 μM), was employed as a positive control.

Solubility in water = assay type: physicochemical; conditions: for solubility (in words): water or physiological buffers
[4] = CO release by HPLC analysis of breakdown of CO donor to its CO depleted form; assay type: physicochemical
Procedure: HPLC grade acetonitrile (CH3CN) was purchased from Merck Chemicals. MilliQ grade H2O was obtained from a Millipore purification system. HPLC grade trifluoroacetic acid (TFA) was purchased from Scharlau. HPLC analyses were conducted on an analytical RP-HPLC (Shimadzu LC-20AD equipped with an SPD-20A UV detector [210 and 254 nm]) using a Phenomenex Prodigy column (C-18, 5 μm, 3.00×250 mm) at 0.5 mL/min and heated to 40° C. Unless otherwise stated, the solvent system for all LC purposes was a mixture of A (0.05% TFA in H2O) and B (CH3CN). The method used was 10% to 100% B over 12.5 min, then 100% B for 2.5 min, unless otherwise stated.
In addition, the rate of CO release was measured in different physiological solutions at pH 7.4, 37° C.: phosphate buffered saline (PBS), Tris-sucrose buffer and UW solution using an amperiometric CO selective electrode (ISO-COP-2, World Precision Instruments (WPI), Inc, Sarasota, USA). The amount of CO released was recorded as the magnitude of electrode current generated on CO diffusion through a selective gas permeable membrane and oxidised to CO2 on the electrode. Current changes were recorded using a WPI TRB4100 4-channel free radical analyser with the poise potential set to 950 mV. […] The effect of pH upon the release of CO was assessed by adjusting the pH of Tris sucrose buffer to pH 6.6 using HCl and to pH 8.5 using NaOH. […]

[5] = oral bioavailability: blood carboxyhaemoglobin after oral gavage; assay type: in vivo, Sprague Dawley rats
Procedure: Male Sprague Dawley rats (300-320 g) were orally dosed with either oCOm-19 (133.33 μmol/kg) or oCOm-21 (33.33 μmol/kg) in ultra-pure water by oral gavage. Animals were observed every 15 minutes for any changes in behaviour or signs of distress. Tail vein blood samples were collected in heparinised capillary tubes immediately prior to and at 1-3 hours post CO-donor administration. Blood gas analysis on each sample was performed using a Radiometer ABL800 Flex analyser.

MDCK cells [6] = experiment: imaging of intracellular CO in living cells with fluorescent probe COP-1; assay type: cell-based, Canine; conditions: 10-50 μM, 37° C. and 8° C., bis-trifluoroacetate Salt
Procedure: A palladium CO-responsive small-molecule fluorescent probe (COP-1) was synthesised and carbonylation of the probe by CO confirmed as previously described.^41 A final concentration of 2 nM of COP-1 was added to each well of a 96-well plate containing 200 μL of Mg^2+ and Ca^2+ free phosphate solution (DPS, 37° C.). CORM-2, oCOm-19 and oCOm-21 (1-100 μM) were added to wells in triplicate, and zeroed against an equivalent volume of vehicle control added to COP-1. Emission spectra (λ 400-600 nm) were recorded at regular time intervals for one hour using a Spectromax Gemini fluorescent plate reader (Molecular Devices, Crawley, UK) at 37° C., (λex 475 nm, and the λem500 nm measured).
The ability of the CO donors to increase intracellular levels of CO was tested in Madin Darby Canine Kidney (MDCK) cells. […] Cells were incubated for 1 hour at either 8 or 37° C. then 1 μM COP-1 in DPS added per well and cells incubated for a further 15 minutes. Cells were imaged on a fluorescent inverted microscope (Nikon Eclipse Ti-E).

MDCK cells [7] = test system: MDCK cells
[8] = * (MDA-MB-231), inactive CO depleted analogues, 37° C., read-out: EC50 (μM), Inactive Compound
[9] = *MDA-MB-231 cells, 1 hr exposure at 37° C., viability after 23 hrs, read-out: EC50 (μM), Active Compound
[10] = read-out: EC50 (μM), Active Compound

- EC50 (MDA-MB-231; [8]): > 200 µM
- melting point: 260 °C
SMILES: Cc1c2c(c(C)c(-c3ccccc3)c1-c1ccccc1)C(=O)N(c1ccccc1)C2=O [BP-1, 4,7-Dimethyl-2,5,6-triphenyl-1H-isoindole-1,3(2H)-dione]

- EC50 (MDA-MB-231; [8]): 196 µM
- melting point: 127 to 129 °C
SMILES: COCCOCCOCCOc1ccc(N2C(=O)c3c(C)c(-c4ccccc4)c(-c4ccccc4)c(C)c3C2=O)cc1 [BP-12, 2-(4-(2-(2-(2-Methoxyethoxy)ethoxy)ethoxy)phenyl)-4,7-dimethyl-5,6-diphenyl-1H-isoindole-1,3(2H)-dione]

- EC50 (MDA-MB-231; [8]): > 200 µM
SMILES: COCCOCCOCCOc1ccc(-c2c(C)c3c(c(C)c2-c2ccc(OCCOCCOCCOC)cc2)C(=O)N(c2ccc(OCCOCCOCCOC)cc2)C3=O)cc1 [BP-15, 2,5,6-Tri-(4-(2-(2-(2-methoxyethoxy)ethoxy)ethoxy)phenyl)-4,7-dimethyl-1H-isoindole-1,3(2H)-dione]

- EC50 (MDA-MB-231; [8]): 159 µM
SMILES: Cc1c2c(c(C)c(-c3ccccc3)c1-c1ccccc1)C(=O)N(CCC(=O)ON1C(=O)CCC1=O)C2=O [BP-17, 2,5-Dioxo-1-pyrrolidinyl 4,7-dimethyl-5,6-diphenyl-1H-isoindole-1,3(2H)-dione-2-propanoate]

SMILES: Cc1c2c(c(C)c(-c3ccccc3)c1-c1ccccc1)C(=O)N(CCC(=O)NCCN)C2=O.Cl [BP-19, N-(2-aminoethyl)-3-(4,7-dimethyl-1,3-dioxo-5,6-diphenylisoindolin-2-yl)propanamide Hydrochloride]
- vasorelaxant response (in words) [1]: no vasorelaxant effect
- EC50 (MDCK cells [2]; read-out: EC50 (μM), Inactive Compound): > 100 µM

SMILES: [C-]#[O+] [CO gas, carbon monoxide]
- carboxyhaemoglobin level ([3]; 2 day duration): 1.1±0.25%
- carboxyhaemoglobin level ([3]; 7 day duration): 2±0.75%

SMILES: [C-]#[O+].[C-]#[O+].[C-]#[O+].[C-]#[O+].[C-]#[O+].[C-]#[O+].[Cl][Ru][Cl].[Cl][Ru][Cl] [CORM2, Tri-carbonyldichlororuthenium (II) dimer, reference compound]
- carbonmonoxymyoglobin formation (in words) (horse heart myoglobin): characteristic shift in the absorbance maxima of myoglobin

- EC50 (MDA-MB-231; [9]): 4.6 µM
SMILES: CC12C(=O)C(C)(C(c3ccccc3)=C1c1ccccc1)C1(Br)C(=O)N(c3ccccc3)C(=O)C21 (stereo not shown) [oCOm-1, 3a-Bromo-3a,4,7,7a-tetrahydro-4,7-dimethyl-2,5,6-triphenyl-4,7-methano-1H-isoindole-1,3,8(2H)-trione]
- cellular toxicity (in words) (MDA-MB-231): greatest toxicity

- EC50 (MDA-MB-231; [9]): 23.1 µM
SMILES: CC12C(=O)C(C)(C(c3ccccc3)=C1c1ccccc1)C1(Br)C(=O)N(c3ccc(O)cc3)C(=O)C21 (stereo not shown) [oCOm-8, 3a-Bromo-3a,4,7,7a-tetrahydro-4,7-dimethyl-2-(4-hydroxyphenyl)-5,6-diphenyl-4,7-methano-1H-isoindole-1,3,8(2H)-trione]

- EC50 (MDA-MB-231; [9]): 183 µM
SMILES: COCCOCCOCCOc1ccc(C2=C(c3ccc(OCCOCCOCCOC)cc3)C3(C)C(=O)C2(C)C2C(=O)N(c4ccc(OCCOCCOCCOC)cc4)C(=O)C23Br)cc1 (stereo not shown) [oCOm-15, 3a-Bromo-3a,4,7,7a-tetrahydro-4,7-dimethyl-2,5,6-tri-(4-(2-(2-(2-methoxyethoxy)ethoxy)ethoxy)phenyl)-4,7-methano-1H-isoindole-1,3,8(2H)-trione]

- EC50 (MDA-MB-231; [9]): 216 µM
- solubility (in words) (Solubility in water): lack of solubility in water
SMILES: CC12C(=O)C(C)(C(c3ccccc3)=C1c1ccccc1)C1(Br)C(=O)N(CCC(=O)ON3C(=O)CCC3=O)C(=O)C21 (stereo not shown) [oCOm-17, 2,5-Dioxopyrrolidin-1-yl 3-(3a-bromo-4,7-dimethyl-1,3,8-trioxo-5,6-diphenyl-1,3,3a,4,7,7a-hexahydro-2H-4,7-methanoisoindol-2-yl)propanoate]
- cellular toxicity (in words) (MDA-MB-231): least toxic

- solubility (in words) (Solubility in water): water soluble
- Solubility in water at 21° C. (Solubility in water; water, 21° C.): 3200 µg/mL
SMILES: CC12C(=O)C(C)(C(c3ccccc3)=C1c1ccccc1)C1(Br)C(=O)N(CCC(=O)NCCN)C(=O)C21.Cl (stereo not shown) [oCOm-19, N-(2-Aminoethyl)-3-(3a-bromo-4,7-dimethyl-1,3,8-trioxo-5,6-diphenyl-3a,4,7,7a-tetrahydro-1H-4,7-methanoisoindol-2(2H)-yl)propanamide hydrochloride]
- time by which 50% of the donor CO maximum release capacity was depleted [4]: 40 min
- carbonmonoxymyoglobin formation (in words) (horse heart myoglobin): time- and concentration-dependent increase in carbonmonoxymyoglobin formation
- effect on circulating carboxyhaemoglobin (in words) ([5]; oCOm-19 and DB-13 133.3 μmol/kg, oCOm-21 33.3 μmol/kg, hydrochloride): increase in circulating carboxyhaemoglobin
- behaviour / signs of distress after oral dosing ([5]; observed every 15 minutes): body pressing behaviour indicative of abdominal discomfort
- vasorelaxant response (in words) ([1]; hydrochloride): reversible, concentration-dependent vasorelaxant responses; also recorded: reversible, concentration-dependent vasorelaxation; also recorded: vasorelaxant effects
- EC50 (MDCK cells [2]; [10]): 86 µM

SMILES: CC12C(=O)C(C)(C(c3ccccc3)=C1c1ccccc1)C1(Br)C(=O)N(CCNCCN)C(=O)C21 (stereo not shown) [oCOm-23, 2-(2-(2-Aminoethyl)aminoethyl)-3a-bromo-3a,4,7,7a-tetrahydro-4,7-dimethyl-5,6-diphenyl-4,7-methano-1H-isoindole-1,3,8(2H)-trione bis-trifluoroacetate Salt]
- time by which 50% of the donor CO maximum release capacity was depleted [4]: 75 min
- intracellular CO, COP-1 / BODIPY fluorescence (in words) (MDCK cells [6]): Increased BODIPY fluorescence intensity; also recorded: increased intracellular CO levels
- cellular toxicity (in words) (MDCK cells [7]): increased toxicity
- EC50 (MDCK cells [2]; [10]): 10.1 µM
- EC50 (MDCK cells [2]; read-out: EC50 (μM), Active Compound at 8° C.): > 200 µM

— patent US11072584B2, “Carbon monoxide releasing norbornenone compounds” (OTAGO INNOVATION LIMITED, priority 2015, dated 2021)
